We go through one compound from PMC7614683, “A small molecule PI3Kα activator for cardioprotection and neuroregeneration” (Nature, 2023).

This test deals with PI3Kα-KO MEFs. In words: Mass spectrometry-based phosphoproteomics, PI3Kα-KO MEFs. In kind it is cell-based, mouse. The method, then:
PI3Kα-WT and PI3Kα-KO MEFs, grown in 15 cm dishes, were serum-starved overnight in DMEM with 1% penicillin-streptomycin and stimulated by the addition of 0.05% DMSO, 5 μM 1938 in final 0.05% DMSO or 100 nM insulin (Sigma #I5016) for 15 min or 4 h. Cells were lysed in 500 μl urea lysis buffer [50 mM triethylammonium bicarbonate, 8 M urea, cOmplete™ EDTA-free protease inhibitor cocktail (1:50 dilution) (Roche #11873580001), 1 PhosSTOP tablet (Roche #4906845001) per 10 ml of lysis buffer, 1 mM sodium orthovanadate] and lysates sonicated until clear for ~10 min with cooling breaks on ice. Protein concentration was measured using a BCA protein assay (Pierce #23227). 300 μg of protein was reduced with 5 mM Tris(2-carboxyethyl)phosphine hydrochloride (Sigma #C4706) at 37°C for 20 min and alkylated using 10 mM 2-chloroacetamide (Sigma #22790) for 20 min at room temperature in the dark. Proteins were digested with LysC (#129-02541; FUJIFILM Wako Chemicals, Osaka, Japan) for 3.5 h at 30°C. Samples were then diluted with 50 mM triethylammonium bicarbonate (Sigma #T7408) to reduce the urea concentration to 1.5 M, followed by an overnight peptide digestion with trypsin (Promega #V5113) at 37°C. Digest reactions were quenched by the addition of 10% trifluoroacetic acid (EMD Millipore #302031-M) to a final pH of 2.0. Sample desalting was performed using 35-350 μg C18 columns (HMM S18V; The Nest Group, Inc., Southborough, MA, USA) according to the manufacturer’ specifications. TiO2 (Hichrome Titansphere TiO2, 10 μm capacity, 100 mg, GL Sciences #5020-75010) was used for phosphoenrichment. Following peptide loading onto TiO2, the beads were sequentially washed with 1 M glycolic acid (Sigma #124737)/80% acetonitrile/5% trifluoroacetic acid, followed by 80% acetonitrile/0.2% trifluoroacetic acid and 20% acetonitrile before elution with 5% ammonium hydroxide. Enriched samples were desalted using 7-70 μg C18 columns (HUM S18V; The Nest Group, Inc., Southborough, MA, USA) according to the manufacturer’s specifications. Dried phosphopeptide samples were stored at -80°C and resuspended in 10% formic acid immediately prior to analysis. nLC-MS/MS was performed on a Q-Exactive Orbitrap Plus interfaced to a NANOSPRAY FLEX ion source and coupled to an Easy-nLC 1000 (Thermo Scientific). Fifty percent of each sample was analysed as 10 μl injections. Peptides were separated on a 27 cm fused silica emitter, 75 μm diameter, packed in-house with Reprosil-Pur 200 C18-AQ, 2.4 μm resin (Dr. Maisch, Ammerbuch-Entringen, Germany) using a linear gradient from 5% to 30% acetonitrile/0.1% formic acid over 180 min, at a flow rate of 250 nl/min. Peptides were ionised by electrospray ionisation using 1.9 kV applied immediately prior to the analytical column via a microtee built into the nanospray source with the ion transfer tube heated to 320°C and the S-lens set to 60%. Precursor ions were measured in a data-dependent mode in the orbitrap analyser at a resolution of 70,000 and a target value of 3e6 ions. The ten most intense ions from each MS1 scan were isolated, fragmented in the HCD cell, and measured in the Orbitrap at a resolution of 17,500.
Raw data were analysed with MaxQuant[72] (version 1.5.5.1) where they were searched against the mouse UniProt database (http://www.uniprot.org/, downloaded 04/12/2018) using default settings. Carbamidomethylation of cysteines was set as fixed modification, and oxidation of methionines, acetylation at protein N-termini, phosphorylation (on S, T or Y) were set as variable modifications. Enzyme specificity was set to trypsin with maximally 2 missed cleavages allowed. To ensure high confidence identifications, peptide-spectral matches, peptides, and proteins were filtered at a less than 1% false discovery rate (FDR). Label-free quantification in MaxQuant was used with a LFQ minimum ratio count of 2, Fast LFQ selected and the ‘skip normalisation’ option selected. […]

For the compound `CCN1CCN(c2ccc(Nc3cc(Nc4cccc5c4N(C(C)=O)CC5)ccn3)cc2)CC1` [Compound 1938], the “signalling impact (phosphoproteomics)” value (PI3Kα-KO MEFs, 1938 5 μM) is recorded as “little signalling impact”. For the same compound, the “log2FC, PI3Ka KO 15’ 1938 vs PI3Ka KO DMSO” value reads like this: (phosphosite Cask_S544) -0.1046; (phosphosite Cask_S545) 0.1395; (phosphosite Gm42715_S1683) “Inf”. In addition, the “log2FC, PI3Ka KO 4 h 1938 vs PI3Ka KO DMSO” value reads like this: (phosphosite Cask_S544) “NegInf”; (phosphosite Cask_S545) 0.1333; (phosphosite Gm42715_S1683) “Inf”.
